Tests used:
[1] = test system: Leishmania donovani; assay: The in vitro leishmanicidal activity by measuring the 3H thymidine incorporation in promastigotes of Leishmania donovani at 200 uM concentration; format: functional
[2] = test system: Leishmania donovani; assay: The in vitro leishmanicidal activity by measuring the 3H thymidine incorporation in promastigotes of Leishmania donovani; format: functional, organism-based
[3] = test system: Leishmania donovani; assay: The in vitro leishmanicidal activity by measuring the 3H thymidine incorporation in promastigotes of Leishmania donovani at 100 uM concentration; format: functional

`Cc1cc(O)n2nc(NS(=O)(=O)c3ccc(Cl)cc3)nc2n1` showed a Growth inhibition [1] of 5%.
`Nc1n[nH]c(NS(=O)(=O)c2ccccc2)n1` was tested, and the Growth inhibition [1] was 97% and the IC50 [2] was 2 µM.
`O=S(=O)(Nc1nc2nc3c(c(O)n2n1)CCC3)c1ccc(Cl)cc1` showed a Growth inhibition [1] of 15%.
Compound `N#Cc1cnc2nc(NS(=O)(=O)c3ccc(Cl)cc3)nn2c1N` has a Growth inhibition [1] of 0%.
Compound `O=S(=O)(Nc1nc2nc(-c3ccccc3)cc(-c3ccccc3)n2n1)c1ccc(Cl)cc1` has a Growth inhibition [1] of 98% and an IC50 [2] of 2 µM.
`Cc1ccc2nc(NS(=O)(=O)c3ccc(N)cc3)oc2c1` was tested, and the Growth inhibition [1] was 92.6% and the IC50 [2] was 15.5 µM.
Work on `Cc1ccc(S(=O)(=O)Nc2nc3nc(C)cc(C)n3n2)cc1` yielded a Growth inhibition [1] of 100% and an IC50 [2] of 1.5 µM.
`Nc1ccc(S(=O)(=O)Nc2nc3ccccc3o2)cc1` gave a Growth inhibition [1] of 74% and an IC50 [2] of 6.4 µM.
`Nc1ccc(S(=O)(=O)Nc2nc3ccccc3[nH]2)cc1` gave a Growth inhibition [1] of 80% and an IC50 [2] of 10.5 µM.
`CCOC(=O)c1cnc2nc(NS(=O)(=O)c3ccc(Cl)cc3)nn2c1O` was tested, and the Growth inhibition [1] was 0%.
For `CCOC(=O)c1cnc2nc(NS(=O)(=O)c3ccc(Cl)cc3)nn2c1N`, the Growth inhibition [1] was 0%.
Work on `Cc1ccc(S(=O)(=O)Nc2nc3nc(-c4ccccc4)cc(O)n3n2)cc1` yielded a Growth inhibition [1] of 100% and an IC50 [2] of 2 µM.
`CSc1nc2nc(NS(=O)(=O)c3ccc(Cl)cc3)nn2c(N)c1C#N` was tested, and the Growth inhibition [1] was 17%.
`Cc1cc(C)n2nc(NS(=O)(=O)c3ccc(Cl)cc3)nc2n1` showed a Growth inhibition [1] of 3%.
With `N=C(N)c1ccc(OCCCCCOc2ccc(C(=N)N)cc2)cc1` [PENTAMIDINE] the Growth inhibition [3] was 100% and the IC50 [2] was 0.76 µM.
